Patent publication US20250122225A1, “MASP-2 INHIBITORS AND METHODS OF USE” (Omeros Corporation, priority 2023, published 2025)
Counter-ions that a name gives are not always drawn.

Key:
MASP-2 (CCP1-CCP2-SP) = target: T1, MASP-2 (CCP1-CCP2-SP) (Homo sapiens, UniProt O00187); assay: Enzymatic assay for MASP-2 inhibitory activity (fluorogenic substrate); type: biochemical
T1 construct: 15 μL of Enzyme MASP-2 (CCP1-CCP2-SP) in Assay Buffer
In short: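 Fluorescence was normalized between no-enzyme and DMSO-only controls to derive % activity, with IC50 taken as equivalent to Ki except for tight-binding inhibitors. Reactions ran 20 min at room temperature in HEPES pH 7.4/NaCl/Tween 20 buffer, using the C2-derived fluorogenic substrate, before acetic acid stop.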

human α-thrombin = target: T2, human α-thrombin (Homo sapiens, UniProt P00734); assay: Enzymatic assay for thrombin (fluorogenic peptide substrate Boc-VPR-AMC); type: biochemical
T2 construct: enzyme (human α-thrombin (BioPharm® Lab.)) in assay buffer; purchased BioPharm® Lab
In short: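 Assay conditions kept the reaction linear in time, enzyme and substrate, so IC50 approximated Ki apart from tight- or slow-binding cases. Boc-VPR-AMC cleavage by human α-thrombin proceeded 20 min at room temperature in Hepes pH 7.4/NaCl/Tween 20 buffer, then was acid-quenched and read by fluorescence.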

T1 sequence (O00187 445-686 limits assumed): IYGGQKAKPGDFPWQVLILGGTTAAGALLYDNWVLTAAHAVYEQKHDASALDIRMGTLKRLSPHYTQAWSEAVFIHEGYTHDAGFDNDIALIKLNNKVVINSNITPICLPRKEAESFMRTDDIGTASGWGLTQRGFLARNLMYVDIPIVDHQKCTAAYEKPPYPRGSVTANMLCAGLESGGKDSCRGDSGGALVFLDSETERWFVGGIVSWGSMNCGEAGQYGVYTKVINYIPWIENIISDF
T1 sequence (O00187 287-444 partner limits assumed): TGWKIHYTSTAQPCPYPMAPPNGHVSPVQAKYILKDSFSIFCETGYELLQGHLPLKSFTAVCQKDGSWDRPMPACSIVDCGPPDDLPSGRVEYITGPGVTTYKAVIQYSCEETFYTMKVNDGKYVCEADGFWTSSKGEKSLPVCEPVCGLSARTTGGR

Row | SMILES | Ki (MASP-2 (CCP1-CCP2-SP)) [nM] | Ki (human α-thrombin) [nM]
1 | Cc1cc(F)cc(CNc2ncc3n(c2=O)[C@H](C(=O)NCc2cnc4[nH]cc(Cl)c4c2)CC3)c1 [Compound 182, (S)—N-((3-chloro-1H-pyrrolo[2,3-b]pyridin-5-yl)methyl)-3-((3-fluoro-5-methylbenzyl)amino)-4-oxo-4,6,7,8-tetrahydropyrrolo[1,2-a]pyrazine-6-carboxamide] | < 500 | < 500
2 | Cc1ccc(F)cc1CNc1ncc2n(c1=O)[C@H](C(=O)NCc1cc3cnccc3[nH]1)CC2 [Compound 63, (S)-N-((1H-pyrrolo[3,2-c]pyridin-2-yl)methyl)-3-((5-fluoro-2-methylbenzyl)amino)-4-oxo-4,6,7,8-tetrahydropyrrolo[1,2-a]pyrazine-6-carboxamide] | < 500 | 500 to 2500
3 | Cc1cc(F)cc(CNc2ncc3n(c2=O)[C@H](C(=O)NCc2cnc4[nH]ccc4c2)CC3)c1 [Compound 183, (S)-N-((1H-pyrrolo[2,3-b]pyridin-5-yl)methyl)-3-((3-fluoro-5-methylbenzyl)amino)-4-oxo-4,6,7,8-tetrahydropyrrolo[1,2-a]pyrazine-6-carboxamide] | 500 to 2500 | 2500 to 10000
4 | C[C@H]1C[C@@H](C(=O)NCc2cc3cnccc3[nH]2)n2c1cnc(NCc1ccccc1)c2=O [Compound 152, (6S,8S)-N-((1H-pyrrolo[3,2-c]pyridin-2-yl)methyl)-3-(benzylamino)-8-methyl-4-oxo-4,6,7,8-tetrahydropyrrolo[1,2-a]pyrazine-6-carboxamide] | < 500 | 2500 to 10000
5 | O=C(NCc1cc2c(s1)CNC2)[C@@H]1CCc2cnc(NCc3cccc(-c4ccccc4)c3)c(=O)n21 [Compound 285, (S)-3-(([1,1′-biphenyl]-3-ylmethyl)amino)-N-((5,6-dihydro-4H-thieno[2,3-c]pyrrol-2-yl)methyl)-4-oxo-4,6,7,8-tetrahydropyrrolo[1,2-a]pyrazine-6-carboxamide trifluoroacetate] | < 500 | 500 to 2500
6 | Cc1ccc(F)c(CNc2ncc3n(c2=O)[C@H](C(=O)NCc2ccc(N)nc2C)CC3)c1 [Compound 77, (S)-N-((6-amino-2-methylpyridin-3-yl)methyl)-3-((2-fluoro-5-methylbenzyl)amino)-4-oxo-4,6,7,8-tetrahydropyrrolo[1,2-a]pyrazine-6-carboxamide] | < 500 | < 500
7 | Cc1cc(C)cc(CNc2ncc3n(c2=O)[C@H](C(=O)NCc2cnc4c(c2)CNC4)CC3)c1 [Compound 108, (S)—N-((6,7-dihydro-5H-pyrrolo[3,4-b]pyridin-3-yl)methyl)-3-((3,5-dimethylbenzyl)amino)-4-oxo-4,6,7,8-tetrahydropyrrolo[1,2-a]pyrazine-6-carboxamide] | < 500 | 10000 to 25000

More lines, now with the values ahead:

Row | Ki (MASP-2 (CCP1-CCP2-SP)) [nM] | Ki (human α-thrombin) [nM] | SMILES
8 | < 500 | < 500 | Cc1cc(C)cc(CNc2ncc3n(c2=O)[C@H](C(=O)N[C@@H]2CCc4nc(N)ccc42)CC3)c1 [Compound 186, (S)-N-((R)-2-amino-6,7-dihydro-5H-cyclopenta[b]pyridin-5-yl)-3-((3,5-dimethylbenzyl)amino)-4-oxo-4,6,7,8-tetrahydropyrrolo[1,2-a]pyrazine-6-carboxamide]
9 | < 500 | 10000 to 25000 | Cc1ccc(F)c(CNc2ncc3n(c2=O)[C@H](C(=O)NCc2cc4cnc(C)cc4[nH]2)CC3)c1 [Compound 80, (S)-3-((2-fluoro-5-methylbenzyl)amino)-N-((6-methyl-1H-pyrrolo[3,2-c]pyridin-2-yl)methyl)-4-oxo-4,6,7,8-tetrahydropyrrolo[1,2-a]pyrazine-6-carboxamide]
10 | < 500 | 2500 to 10000 | Cc1cc(C)cc(CNc2nc(Cl)c3n(c2=O)[C@H](C(=O)NCc2ccc(N)nc2C)CC3)c1 [Compound 24, trifluoroacetate]
11 | < 500 | < 500 | CCc1cccc([C@@H](CC)Nc2ncc3n(c2=O)[C@H](C(=O)NCc2cc4c(s2)CNC4)CC3)c1 [Compound 268, (S)-N-((5,6-dihydro-4H-thieno[2,3-c]pyrrol-2-yl)methyl)-3-(((R)-1-(3-ethylphenyl)propyl)amino)-4-oxo-4,6,7,8-tetrahydropyrrolo[1,2-a]pyrazine-6-carboxamide trifluoroacetate]
